Results from patent US4472388A, “N-Methanesulfonic acid derivatives of 3-O-demethylistamycin B and production thereof” (Zaidan Hojin Biseibutsu Kagaku Kenkyu Kai, priority 1982, dated 1984).
Converted amounts (≈) assume the structure as drawn.

Columns and labels:
[1] = tested on: Escherichia coli JR225; assay: Minimum inhibitory concentration, serial dilution on Mueller-Hinton agar; type: cell-based; details: JR225, 17 h, read-out: Minimum inhibitory concentration
Excerpt: (§1) Minimum inhibitory concentrations (mcg/ml) of the parent 3-O-demethylistamycin B were also estimated in the same manner for the comparison purpose and also are shown in Table 1.

[2] = tested on: Escherichia coli JR66/W677; assay: as above; type: cell-based; details: for Minimum inhibitory concentration: Escherichia coli JR66/W677, Mueller-Hinton agar, 37° C., 17 hours
Excerpt: as §1

[3] = tested on: Escherichia coli K-12 C600 R135; assay: as above; type: cell-based; details: K12C600R135, 37° C., 17 hours
Excerpt: as §1

[4] = tested on: Escherichia coli K-12 LA290 R55; assay: as above; type: cell-based
Excerpt: as §1

[5] = tested on: Escherichia coli K-12 ML1629; assay: as above; type: cell-based; details: K12ML1629, 37° C., 17 hours
Excerpt: as §1

[6] = tested on: Escherichia coli K-12 R5; assay: as above; type: cell-based
Excerpt: as §1

[7] = tested on: Escherichia coli K-12; assay: as above; type: cell-based; details: K12, 37° C., 17 hours
Excerpt: as §1

[8] = tested on: Providencia Pv 16; assay: as above; type: cell-based; details: 17 hours; for Minimum inhibitory concentration: 37° C.
Excerpt: as §1

[9] = tested on: Pseudomonas aeruginosa A3; assay: as above; type: cell-based; details: for Minimum inhibitory concentration: Pseudomonas aeruginosa A3, Mueller-Hinton agar, 37° C., 17 hours
Excerpt: as §1

[10] = tested on: Pseudomonas aeruginosa GN315; assay: as above; type: cell-based; details: for Minimum inhibitory concentration: Pseudomonas aeruginosa GN315, Mueller-Hinton agar, 37° C., 17 hours
Excerpt: as §1

[11] = tested on: Pseudomonas aeruginosa H9; assay: as above; type: cell-based; details: 37° C., 17 hours
Excerpt: as §1

[12] = tested on: Pseudomonas aeruginosa TI-13; assay: as above; type: cell-based; details: for Minimum inhibitory concentration: Pseudomonas aeruginosa TI-13, Mueller-Hinton agar, 37° C., 17 hours
Excerpt: as §1

[13] = tested on: Serratia marcescens; assay: as above; type: cell-based; details: for Minimum inhibitory concentration: Mueller-Hinton agar, 37° C., 17 hours
Excerpt: as §1

[14] = tested on: Staphylococcus aureus 209P; assay: as above; type: cell-based; details: 37° C., 17 hours
Excerpt: as §1

[15] = tested on: Staphylococcus aureus Ap01; assay: as above; type: cell-based; details: 37° C., 17 hours
Excerpt: as §1

[16] = Acute toxicity, intravenous administration in mice; type: in vivo; details: ICR mice
Description: A test compound was diissolved in 0.25 ml of a physiological saline solution and the solution of the test compound so prepared was intravenously administered into a series of mouse groups each consisting of six mice (ICR strain, adult female, body weight 20 g±0.5 g) as the test animal, […] Acute toxicity of 3-O-demethylistamycin B was also estimated in the same manner as above for the comparison purpose. […]

[17] = tested on: gram-negative and gram-positive bacteria, including Pseudomonas aeruginosa; details: cited earlier filings; cited from earlier work

Compound: CNCC1CCC(N)C(OC2C(N)CC(O)C(N(C)C(=O)CN)C2O)O1 (centres unmarked) [3-O-demethylistamycin B]
- MIC [1]: 0.78 µg/mL (≈ 2.08 µM)
- MIC ([2]; Escherichia coli, JR66/W677, 17 h, read-out: Minimum inhibitory concentration): 1.56 µg/mL (≈ 4.15 µM)
- MIC [3]: 1.56 µg/mL (≈ 4.15 µM)
- MIC ([4]; Escherichia coli, K12LA290R55, 17 h, read-out: Minimum inhibitory concentration): 0.78 µg/mL (≈ 2.08 µM)
- MIC [5]: 1.56 µg/mL (≈ 4.15 µM)
- MIC ([6]; Escherichia coli, K12R5, 17 h, read-out: Minimum inhibitory concentration): 3.13 µg/mL (≈ 8.34 µM)
- MIC [7]: 0.78 µg/mL (≈ 2.08 µM)
- MIC ([8]; PV16, 37° C.): 0.78 µg/mL (≈ 2.08 µM)
- MIC ([9]; Pseudomonas aeruginosa, A3, 17 h, read-out: Minimum inhibitory concentration): 0.2 µg/mL (≈ 0.533 µM)
- MIC ([10]; Pseudomonas aeruginosa, GN315, 17 h, read-out: Minimum inhibitory concentration): 6.25 µg/mL (≈ 16.6 µM)
- MIC [11]: 12.5 µg/mL (≈ 33.3 µM)
- MIC ([12]; Pseudomonas aeruginosa, TI13, 17 h, read-out: Minimum inhibitory concentration): 6.25 µg/mL (≈ 16.6 µM)
- MIC ([13]; 17 h, read-out: Minimum inhibitory concentration): 1.56 µg/mL (≈ 4.15 µM)
- MIC [14]: 0.39 µg/mL (≈ 1.04 µM)
- MIC [15]: 0.39 µg/mL (≈ 1.04 µM)
- death of mice ([16]; 320 mg/kg, within 24 hours): all mice died within 24 hours
- LD50 ([16]; mouse, in vivo, adult female): 160 to 320 mg/kg
- antibacterial activity [17]: high antibacterial activity

Compound: 3-O-demethylistamycin B-mono-N-methanesulfonic acid sodium salt [Compound (1)]
- Minimum inhibitory concentration [2]: 6.25 µg/mL
- Minimum inhibitory concentration [8]: 3.13 µg/mL
- Minimum inhibitory concentration [9]: 0.78 µg/mL
- Minimum inhibitory concentration [10]: 12.5 µg/mL
- Minimum inhibitory concentration [11]: 12.5 µg/mL
- Minimum inhibitory concentration [12]: 6.25 µg/mL
- Minimum inhibitory concentration [13]: 6.25 µg/mL
- Minimum inhibitory concentration [14]: 0.78 µg/mL
- Minimum inhibitory concentration [15]: 1.56 µg/mL

Compound: 3-O-demethylistamycin B-di-N-methanesulfonic acid sodium salt [Compound (2)]
- Minimum inhibitory concentration [2]: 6.25 µg/mL
- Minimum inhibitory concentration [8]: 3.13 µg/mL
- Minimum inhibitory concentration [9]: 3.13 µg/mL
- Minimum inhibitory concentration [10]: 6.25 µg/mL
- Minimum inhibitory concentration [11]: 12.5 µg/mL
- Minimum inhibitory concentration [12]: 6.25 µg/mL
- Minimum inhibitory concentration [13]: 12.5 µg/mL
- Minimum inhibitory concentration [14]: 1.56 µg/mL
- Minimum inhibitory concentration [15]: 1.56 µg/mL

Compound: 3-O-demethylistamycin B-tri-N-methanesulfonic acid sodium salt [Compound (3)]
- Minimum inhibitory concentration [2]: 6.25 µg/mL
- Minimum inhibitory concentration [8]: 3.13 µg/mL
- Minimum inhibitory concentration [9]: 0.78 µg/mL
- Minimum inhibitory concentration [10]: 12.5 µg/mL
- Minimum inhibitory concentration [11]: 12.5 µg/mL
- Minimum inhibitory concentration [12]: 6.25 µg/mL
- Minimum inhibitory concentration [13]: 12.5 µg/mL
- Minimum inhibitory concentration [14]: 0.78 µg/mL
- Minimum inhibitory concentration [15]: 1.56 µg/mL

Compound: 3-O-demethylistamycin B-tetra-N-methanesulfonic acid sodium salt [Compound (4)]
- Minimum inhibitory concentration [2]: 25 µg/mL
- Minimum inhibitory concentration ([4]; Escherichia coli K-12 LA290 R55, Mueller-Hinton agar, 37° C., 17 hours): 12.5 µg/mL
- Minimum inhibitory concentration ([6]; Escherichia coli K-12 R5, Mueller-Hinton agar, 37° C., 17 hours): 25 µg/mL
- Minimum inhibitory concentration [8]: 6.25 µg/mL
- Minimum inhibitory concentration [9]: 1.56 µg/mL
- Minimum inhibitory concentration [10]: 25 µg/mL
- Minimum inhibitory concentration [11]: 25 µg/mL
- Minimum inhibitory concentration [12]: 25 µg/mL
- Minimum inhibitory concentration [13]: 25 µg/mL
- Minimum inhibitory concentration [14]: 1.56 µg/mL
- Minimum inhibitory concentration [15]: 3.13 µg/mL
